For assay [1], the system named is HSP72. The assay is described as follows: Heat stress induced HSP72 production in 3T3 cells. Type of assay: cell-based, mouse. Particulars: 10^−5 M. The procedure: From the applied cells the 3T3 and L-929 mouse fibroblasts were cultured in MEM medium and grew in monolayer, the U-937 human leukemia cells were maintained in RPMI-1640 medium, in suspension culture, while the HeLa human epithelial cells were cultured in DMEM medium and in monolayer form. Cell cultures were maintained as described in example 6.2 (a) with the difference that cells were cultured in the above mentioned culture mediums.
Experiments were carried out applying stress before and after the drug treatment. Stress was provoked by heat, by chemical agent, HgCl2 treatment. The test compounds were applied in the treatments at the 10^−5 M concentration.
The experiments on 3T3 cell applying heat stress were performed as described in the 6.2. (c) point of example 6, with the difference that stress was induced by a 30 min. exposure at 43° C. temperature and treatment with the test compounds was performed 15 min. before or 100 min. after the heat stress.
Immunodetection was carried out using the HSP72 specific SPA 810 (StressGene) primary and the horse-radish peroxidase conjugated A9044 (Sigma) secondary antibodies. Densitometric evaluation was performed by a LKB Ultrascan XL densitometer.

Assay [2] relates to Hsp72. As to the kind of experiment: Heat stress induced hsp72 expression in rat testicular explant. Type of assay: cell-based. The following applies: 10^−5 M, 15 min. before 43° C. 30 min. The procedure:
Testis of CFY rats weighing of 200 g were removed in sterile conditions and the released testicular tubuli were suspended in 10% fetal bovine serum containing MEM culture medium in that way that five ml suspension contained 50-100 mg tissue. The explants were incubated in 5% CO2 containing humidified air at 37° C. for one hour, then the cultures were treated with 10^−5 M concentration of the tested compounds. After a further incubation for 15 min. at 37° C., explants were exposed to heat shock at 43° C. for 30 min. The amount of the induced hsp72 was measured after a further 6 hours incubation at 37° C.

In the next assay the test system is Male Sprague-Dawley rats. The assay is described as follows: Protection against cardiac ischaemia: survival after 5 minutes coronary occlusion and reperfusion. The following applies: i.v. 1 mg/kgbw, 5 min. before the occlusion; non-treated control 10. In kind it is in vivo, rat. On the procedure: Male Sprague-Dawley rats (380-450 g b.w.) were anaesthetized with sodiumpentobarbital (Nembutal 60 mg/kg body weight, i.p.) and artificially ventilated with room air (2 ml/100 g; 54 stroke/minutes) via tracheotomy. The right carotid artery was catheterized and connected to a pressure transducer (BPR-01, Stoelting) for the measurement of systemic arterial blood pressure (BP) by means of a preamplifier (Hg-02, Experimetria). Hydroxylamine derivatives disclosed in Example 5 were administered via the venous cannule to jugular vein (i.v.) and orally (p.o.). Heart rate (HR) was measured by a cardiotachometer (HR-01, Experimetria). The electrocardiogram (ECG standard lead II) was recorded on a devices recorder (MR-12, Medicor) by means of subcutaneous steel needles electrodes. The chest was opened by a left thoracotomy and the heart was exteriorized by a gentle pressure on the right side of the rib cage. A 4-0 silk suture was quickly placed under the main left coronary artery as described by Selye et al. (1960). The heart was carefully replaced in the chest and the animal left to recover. Rectal temperature was monitored and kept constant at 37 C. The experimental protocol was initiated with a 15 minute stabilization period during which the observation of a sustained blood pressure less than 70 mmHg and or the occurrence of anhythmia led to exclusion. Myocardial ischemia was induced with coronary occlusion for 5 minutes and reperfusion allowed for 10 minutes.
During the entire experiment BP, HR and ECG were continuously registered on a multiscriptor (R61-6CH, Medicor). Hydroxylamine derivatives, the tautomeric forms of which are represented by structures (I) and (II), were administered 5 to 60 minutes before the occlusion after i.v. and p.o. treatment, respectively. […]
The mean duration of ventricular tachycardia (VT) and/or ventricular fibrillation (VF) during the first 3 minutes of reperfusion was analyzed by one-way analysis of variance. The incidence of VF was analyzed using a chi-square test. […] The haemodynamic variables were analyzed using Student's “t”-test. The critical level of significance was set at p<0.05. All results were expressed as a means±S.E.M. Drugs were administered i.v. in a dose of 1 mg/kgbw 5 min. before the occlusion.
The hydroxylamine derivatives that are found to be particularly advantageous for protecting an animal against ischemic/reperfusion injury are listed below. Survival (%) indicates the percent of animals survived the effects of 5 minutes coronary occlusion.

Setting [3] is: treatment 15 min. before 30 min. 43° C. heat stress.
Where [4] appears, read: treatment 100 min. after 30 min. 43° C. heat stress.

For “5,6-dihydro-3-(4-chloro-phenyl)-5-[N-methyl-piperidinium-1-yl]-methyl-4H-1,2,4-oxadiazine iodide”, the “HSP72 level relative to the stress exposed control” value with HSP72 [1] (setting [3]) is “++ (51-100%)”. The “Level of hsp72 relative to the stress exposed control” value in the assay with Hsp72 [2] is on record as “+ (21-50%)”.
As for `CC(=NOCC(O)CNC(C)(C)C)c1cccc(C(F)(F)F)c1.CC(=O)O` (centres unmarked) [1-{[3-(t-butylamino)-2-hydroxy-propoxy]-imino}-1-(m-trifluoromethyl-phenyl)-ethane acetate], the “HSP72 level relative to the stress exposed control” value in the assay with HSP72 [1] (setting [3]) is “+++ (>100%)”. Moreover, the “Level of hsp72 relative to the stress exposed control” value in the assay on Hsp72 [2] is reported as “+ (21-50%)”.
Taken in the same sequence, the figures for `CCN(CC)CC1CON=C(c2cccnc2)O1.Cl` (centres unmarked) [3-(3-piridyl)-5-diethylaminomethyl-5,6-dihydro-6H-1,4,2-dioxazine hydrochloride] were “+ (21-50%)” and “+ +”.
Regarding `CC(C)(C)NC1CON=C(c2cccnc2)O1` (centres unmarked) [3-(3-piridyl)-5-t-butylamino-5,6-dihydro-6H-1,4,2-dioxazine], the “HSP72 level relative to the stress exposed control” value in the assay on HSP72 [1] (setting [3]) is reported as “+ (21-50%)”. Further, the “Level of hsp72 relative to the stress exposed control” value in the assay on Hsp72 [2] is 0 (0 indicates that the treatment altered by ±20% the stress induced hsp72 level in the cells).
On to `C[n+]1cccc(C(Cl)=NOCC(O)C[N+]2(C)CCCCC2)c1.[I-].[I-]` (centres unmarked) [Example 16, N′-[2-hydroxy-3-(1-methyl-1-piperidinium-1-yl)propoxy]-N-methyl-pyridinium-3-carboximidoyl chloride diiodide], for which the “Survival (%)” value with Male Sprague-Dawley rats came to 67%. The “HSP72 level relative to the stress exposed control” value in the assay on HSP72 [1] (setting [3]) and with HSP72 [1] (setting [4]) was “+++ (>100%)” in each case.
On to `Cl.Cl.N=C(NOCC(O)CN1CCCCC1)c1nccc2ccccc12` (centres unmarked) [Example 46, N-[2-hydroxy-3-(1-piperidinyl)propoxy]-1-isoquinolinecarboximidoyl dihydrochloride], for which, in the assay on Hsp72 [2], the “Level of hsp72 relative to the stress exposed control” value is “+ + +”.
`CCN(CC)C(=NOCC(O)CN1CCCCC1)c1cccnc1.Cl` (centres unmarked) [Example 51]: in the assay with Male Sprague-Dawley rats, the “Survival (%)” value is reported as 75%. Also, the “HSP72 level relative to the stress exposed control” value with HSP72 [1] (setting [3]) is “+++ (>100%)”.
As to `O=C(NOCC(O)CN1CCCCC1)c1cccc2ccccc12` (centres unmarked) [Example 54, N-[2-hydroxy-3-(1-piperidinyl)propoxy]naphthalene-1-carboxamide], the “Survival (%)” value in the assay with Male Sprague-Dawley rats was determined as 80%. The “HSP72 level relative to the stress exposed control” value in the assay with HSP72 [1] (setting [3]) is listed as “+++ (>100%)”; in the assay with HSP72 [1] (setting [4]) it was “++ (51-100%)”.
In the case of `CCCCCCNC(=O)NOCC(O)CN1CCCCC1` (centres unmarked) [Example 58, N-hexyl-N′-[2-hydroxy-3-(1-piperidinyl)propoxy]-urea], the “HSP72 level relative to the stress exposed control” value with HSP72 [1] (setting [4]) was “+++ (>100%)”. In addition, the “Level of hsp72 relative to the stress exposed control” value in the assay on Hsp72 [2] was 0 (0 indicates that the treatment altered by ±20% the stress induced hsp72 level in the cells).
`CCCCCCNC(=O)NOCCCN1CCCCC1` [Example 61, N-hexyl-N′-[3-(1-piperidinyl)propoxy]-urea]: the “HSP72 level relative to the stress exposed control” value in the assay with HSP72 [1] (setting [3]) is listed as “++ (51-100%)”. In the assay with Hsp72 [2], the “Level of hsp72 relative to the stress exposed control” value is recorded as 0 (0 indicates that the treatment altered by ±20% the stress induced hsp72 level in the cells).
Regarding `O=C(O)/C=C\C(=O)O.O[C@@H](CON=C(Cl)c1cccnc1)CN1CCCCC1` [Example 77, /R/(+)-N-[2-hydroxyl-3-(1-piperidinyl)propoxy]-3-pyridinecarboximidoyl chloride (Z)-2-butenedioate (1:1)], in the assay with Male Sprague-Dawley rats, the “Survival (%)” value stood at 67%. The “HSP72 level relative to the stress exposed control” value with HSP72 [1] (setting [3]) was “+++ (>100%)”.
With `Cl.ClC(=NOCCCN1CCCCC1)c1cccs1` [N-[3-(1-piperidinyl)-propoxy]-tiophene-2-carboximidoyl-chloride-hydrochloride], in the assay with Hsp72 [2], the “Level of hsp72 relative to the stress exposed control” value is “+ +”.
As to `CN(OCCCN1CCCCC1)C(=O)c1ccccc1.Cl` [N-methyl-N-[3-(1-piperidinyl)-propoxy]-benzamide hydrochloride], the “HSP72 level relative to the stress exposed control” value in the assay on HSP72 [1] (setting [3]) is recorded as “+ (21-50%)”. The “Level of hsp72 relative to the stress exposed control” value in the assay on Hsp72 [2] is listed as “+ (21-50%)”.

Source of the values: US7745465B2, “Method of enhancing cellular production of molecular chaperone, hydroxylamine derivatives useful for enhancing the chaperone production and the preparation thereof” (CytRx Corporation, priority 1995, dated 2010).
